One assay concerns the target T1, NLRC4 inflammasome (Mus musculus, UniProt Q3UP24).
T1 construct: host or cells: mouse BMDMs, LPS + transfected flagellin
Put plainly: IL-1β production in mouse BMDMs after NLRC4 activation (LPS + flagellin). Type of assay: cell-based. Conditions: mBMDMs, concentrations up to 10 µM. Here is the method:
Cell viability was determined by addition of an equal volume of CellTiter-Glo® 2.0 reagent (Promega) to the remaining cells/supernatant in each well. Intracellular Caspase-1 activity was measured using the Caspase-Glo® assay (Promega) according to the manufacturer’s instructions. The biochemical capsase-1 assay was conducted at Reaction Biology Corporation (Malvern, USA). Human IL-1β, IL-1α, and TNFα and mouse IL-1β were measured in cell culture supernatants using homogeneous time resolved fluorescence assay kits (HTRF, Cisbio, Codolet, France). Human IL-18 was measured in cell culture supernatants using an ELISA kit (R&D Systems, Minneapolis, MN, USA). Plasma IL-1β concentrations were determined by Quantikine® ELISA (R&D Systems, Minneapolis, MN).
4H). MS: m/z 433.1 (M+H+). […]
flagellin, prepared in Opt iMEM and combined with Lipofectamine 2000. […] After priming Nlrp3 -/- mBMDMs with 100 ng/mL of LPS for 3- 5 h, cells were exposed to 100 ng/mL L18- MDP and incubated overnight.At the end of the incubation period of the assays above, plates were briefly centri fuged and hal f of the cell culture supern atant remo ved and either analysed i mmediately or stored at - 80°C for subs equent cytokine […]

The subject of assay [1] is autocatalytic cleavage of pro-caspase-1 (p45) into the p10 subunit. The experiment in a line: Western blot for caspase-1 p10 in LPS + nigericin stimulated mouse BMDM lysates and supernatants. In kind it is cell-based. The following applies: LPS + nigericin treated mBMDMs, compound 10 µM. Here is the method: BMDMs were activated with LPS and nigericin as described above and were lysed in situ with 50 μL of 4× NuPAGE LDS sample buffer (Fisher Scientific, Hampton, NH) + 5% β-mercaptoethanol and prepared for polyacrylamide gel electrophoresis. Samples were run on NuPAGE Bis–Tris gels (Fisher Scientific, Hampton, NH) and transferred to polyvinylidene difluoride (PVDF) membranes (Fisher Scientific, Hampton, NH) using the iBlot® 2 Dry Blotting System (Fisher Scientific, Hampton, NH). Washed PVDF membranes were blocked and then probed with the following primary antibodies: procaspase-1 + p10 + p12 [EPR16883] (Abcam, Cambridge, MA), β-actin (AC-74, Sigma-Aldrich, St. Louis, MO) and NLRP3 [Cryo-2] (AdipoGen Life Sciences, San Diego, CA). Bound primary antibodies were detected using HRP-labeled secondary antibodies and membranes were imaged with an Azure c300 imager (Azure Biosystems, Dublin, CA). Bands were quantitated using ImageJ software.
On the technique in general: A western blot detects proteins with antibodies after separation by electrophoresis.

T1 sequence (Q3UP24 whole entry): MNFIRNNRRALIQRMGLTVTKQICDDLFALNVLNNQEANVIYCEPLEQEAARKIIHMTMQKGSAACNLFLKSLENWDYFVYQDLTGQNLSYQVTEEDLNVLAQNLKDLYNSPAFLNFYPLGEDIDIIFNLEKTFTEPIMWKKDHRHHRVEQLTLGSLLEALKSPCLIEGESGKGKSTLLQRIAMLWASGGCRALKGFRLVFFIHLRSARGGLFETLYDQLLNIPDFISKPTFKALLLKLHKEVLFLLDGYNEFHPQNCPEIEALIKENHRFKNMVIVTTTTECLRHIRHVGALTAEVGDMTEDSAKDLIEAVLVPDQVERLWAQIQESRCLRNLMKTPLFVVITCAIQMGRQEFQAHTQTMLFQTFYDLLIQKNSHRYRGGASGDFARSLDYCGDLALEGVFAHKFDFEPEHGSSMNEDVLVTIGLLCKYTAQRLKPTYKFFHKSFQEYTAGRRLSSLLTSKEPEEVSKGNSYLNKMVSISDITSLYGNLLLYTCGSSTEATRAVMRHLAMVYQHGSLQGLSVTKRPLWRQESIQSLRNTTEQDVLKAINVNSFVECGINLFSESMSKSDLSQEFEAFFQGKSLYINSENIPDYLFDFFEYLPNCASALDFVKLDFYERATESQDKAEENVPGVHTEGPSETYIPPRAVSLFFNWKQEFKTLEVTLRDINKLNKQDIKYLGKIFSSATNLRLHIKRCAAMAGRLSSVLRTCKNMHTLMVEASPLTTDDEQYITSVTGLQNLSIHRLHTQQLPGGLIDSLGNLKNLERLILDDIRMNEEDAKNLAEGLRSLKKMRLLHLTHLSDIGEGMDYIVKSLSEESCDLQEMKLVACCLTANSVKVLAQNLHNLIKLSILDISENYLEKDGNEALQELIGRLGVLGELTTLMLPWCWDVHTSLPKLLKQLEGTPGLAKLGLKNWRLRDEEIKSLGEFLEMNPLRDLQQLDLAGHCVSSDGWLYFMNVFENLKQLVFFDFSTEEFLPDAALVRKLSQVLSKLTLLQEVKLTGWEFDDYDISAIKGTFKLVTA

`CO[C@@H]1COc2c(S(=O)(=O)NC(=O)Nc3c4c(cc5c3CCC5)CCC4)cnn2C1` [JT002]: the “inhibition of IL-1β production after NLRC4 activation” value on NLRC4 inflammasome is recorded as “no inhibition of IL-1β production”. The “formation of the caspase-1 p10 subunit (autocatalytic cleavage of pro-caspase-1)” value in assay [1] was “blocked formation of the p10 subunit and its release from the cell”.

These data come from article PMC10439952, “JT002, a small molecule inhibitor of the NLRP3 inflammasome for the treatment of autoinflammatory disorders” (Scientific Reports, 2023).
